According to patent US20080009418A1, “Selective Inhibitors” (Alchemia LTD., priority 2004, published 2008):

Key:
Human δ-opioid (DOP) = molecular target: T1, Human δ-opioid (DOP) (Homo sapiens, UniProt P41143); test: Radioligand binding, human δ-opioid (DOP) membranes, FlashPlate, [3H]-Bremazocine; settings: compound at 10 μM, [3H]-Bremazocine
T1 construct: purchased Perkin Elmer Biosignal
How it was run: (§1)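 Cloned human receptor membranes were coated onto FlashPlate wells and incubated with radioligand and compound (added from a 0.5 mM DMSO daughter plate) for 1 hour at room temperature in the dark. Scintillation counting gave percent inhibition, with DMSO defining total and reference ligand defining non-specific binding.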

Human κ-Opioid (KOP) = molecular target: T2, Human κ-Opioid (KOP) (Homo sapiens, UniProt P41145); test: Radioligand binding, human κ-opioid (KOP) membranes, filtration, [3H]-Diprenorphine; settings: compound at 10 μM, [3H]-Diprenorphine
T2 construct: purchased Perkin Elmer Biosignal
T2 sequence (P41145 whole entry): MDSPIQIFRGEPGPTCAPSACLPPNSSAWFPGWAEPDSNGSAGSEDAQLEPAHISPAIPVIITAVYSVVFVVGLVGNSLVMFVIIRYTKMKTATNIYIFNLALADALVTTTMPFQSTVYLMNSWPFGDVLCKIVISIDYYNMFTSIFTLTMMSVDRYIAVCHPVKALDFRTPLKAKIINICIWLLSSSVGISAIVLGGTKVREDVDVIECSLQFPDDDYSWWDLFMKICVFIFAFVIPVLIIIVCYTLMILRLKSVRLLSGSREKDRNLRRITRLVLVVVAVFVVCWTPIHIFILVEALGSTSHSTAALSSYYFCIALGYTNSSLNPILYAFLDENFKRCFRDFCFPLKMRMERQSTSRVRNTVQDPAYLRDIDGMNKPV
How it was run: (§2)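 Percent inhibition of radioligand binding measured on recombinant human membranes: NK1 with [125I]-Substance P, KOP with [3H]-Diprenorphine. Incubation 1 h at room temperature, then harvest onto 0.3% PEI-soaked filters, cold Tris-HCl pH 7.4 washes and scintillation counting; non-specific binding from reference ligand wells.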

Human Melanocortin (MC3) = molecular target: T3, Human Melanocortin (MC3) (Homo sapiens, UniProt P41968); test: Radioligand binding, human melanocortin MC3 membranes, FlashPlate, [125I]-NDP-αMSH; settings: compound at 10 μM, [125I]-NDP-αMSH; for A3: inhibition of radioligand binding, human melanocortin (MC3): 10 µM
T3 construct: purchased Perkin Elmer Biosignal
T3 sequence (P41968 whole entry): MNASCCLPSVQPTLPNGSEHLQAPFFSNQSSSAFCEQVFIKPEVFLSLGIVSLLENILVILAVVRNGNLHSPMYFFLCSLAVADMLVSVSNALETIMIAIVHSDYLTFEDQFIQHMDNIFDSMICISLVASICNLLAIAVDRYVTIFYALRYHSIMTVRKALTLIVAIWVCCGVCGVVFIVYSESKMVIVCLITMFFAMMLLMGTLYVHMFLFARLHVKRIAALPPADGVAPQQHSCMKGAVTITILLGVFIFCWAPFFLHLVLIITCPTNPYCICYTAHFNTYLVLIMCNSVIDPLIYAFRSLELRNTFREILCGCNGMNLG
How it was run: as §1

Human Melanocortin (MC4) = molecular target: T4, Human Melanocortin (MC4) (Homo sapiens, UniProt P32245); test: Radioligand binding, human melanocortin MC4 membranes, FlashPlate, [125I]-NDP-αMSH; settings: compound at 10 μM, [125I]-NDP-αMSH
T4 construct: purchased Perkin Elmer Biosignal
T4 sequence (P32245 whole entry): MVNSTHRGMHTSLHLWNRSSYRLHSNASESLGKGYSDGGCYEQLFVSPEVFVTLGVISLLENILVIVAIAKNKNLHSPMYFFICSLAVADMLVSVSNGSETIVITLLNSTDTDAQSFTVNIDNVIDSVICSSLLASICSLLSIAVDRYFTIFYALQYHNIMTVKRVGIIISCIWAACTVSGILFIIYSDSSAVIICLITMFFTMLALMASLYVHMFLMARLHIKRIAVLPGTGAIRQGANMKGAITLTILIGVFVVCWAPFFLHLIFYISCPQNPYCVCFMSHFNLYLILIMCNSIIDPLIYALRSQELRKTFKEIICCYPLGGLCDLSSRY
How it was run: as §1

Human melanocortin (MC5) = molecular target: T5, Human melanocortin (MC5) (Homo sapiens, UniProt P33032); test: Radioligand binding, human melanocortin MC5 membranes, FlashPlate, [125I]-NDP-αMSH; settings: compound at 10 μM, [125I]-NDP-αMSH
T5 construct: purchased Perkin Elmer Biosignal
T5 sequence (P33032 whole entry): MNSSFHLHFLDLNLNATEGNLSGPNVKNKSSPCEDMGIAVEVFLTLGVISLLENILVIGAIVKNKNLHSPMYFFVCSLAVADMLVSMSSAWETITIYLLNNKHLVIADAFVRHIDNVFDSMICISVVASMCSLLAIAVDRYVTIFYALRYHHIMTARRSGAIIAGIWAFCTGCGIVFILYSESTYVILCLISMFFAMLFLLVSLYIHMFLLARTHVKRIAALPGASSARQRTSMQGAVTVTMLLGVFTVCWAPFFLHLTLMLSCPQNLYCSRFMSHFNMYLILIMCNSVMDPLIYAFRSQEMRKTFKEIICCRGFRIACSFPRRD
How it was run: as §1

[1] = molecular target: T6, Human melanin-concentrating hormone (MCH1) (Homo sapiens, UniProt Q99705); test: Radioligand binding, human melanin-concentrating hormone MCH1 membranes, FlashPlate, [125I]-S36057; settings: compound at 10 μM
T6 construct: purchased Perkin Elmer Biosignal
T6 sequence (Q99705 whole entry): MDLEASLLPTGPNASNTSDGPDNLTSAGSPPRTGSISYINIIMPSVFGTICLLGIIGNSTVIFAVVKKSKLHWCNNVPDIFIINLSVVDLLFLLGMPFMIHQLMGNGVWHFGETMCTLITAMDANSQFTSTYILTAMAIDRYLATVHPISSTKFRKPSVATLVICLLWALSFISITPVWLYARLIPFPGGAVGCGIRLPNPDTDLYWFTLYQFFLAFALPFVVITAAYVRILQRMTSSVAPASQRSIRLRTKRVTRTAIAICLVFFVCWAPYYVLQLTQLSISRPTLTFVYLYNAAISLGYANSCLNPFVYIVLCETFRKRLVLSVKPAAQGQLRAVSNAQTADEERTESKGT
How it was run: as §1

Human μ-opioid (MOP) = molecular target: T7, Human μ-opioid (MOP) (Homo sapiens, UniProt P35372); test: Radioligand binding, human μ-opioid (MOP) membranes, FlashPlate, [3H]-Naloxone; settings: compound at 10 μM, [3H]-Naloxone
T7 construct: purchased Perkin Elmer Biosignal
T7 sequence (P35372 whole entry): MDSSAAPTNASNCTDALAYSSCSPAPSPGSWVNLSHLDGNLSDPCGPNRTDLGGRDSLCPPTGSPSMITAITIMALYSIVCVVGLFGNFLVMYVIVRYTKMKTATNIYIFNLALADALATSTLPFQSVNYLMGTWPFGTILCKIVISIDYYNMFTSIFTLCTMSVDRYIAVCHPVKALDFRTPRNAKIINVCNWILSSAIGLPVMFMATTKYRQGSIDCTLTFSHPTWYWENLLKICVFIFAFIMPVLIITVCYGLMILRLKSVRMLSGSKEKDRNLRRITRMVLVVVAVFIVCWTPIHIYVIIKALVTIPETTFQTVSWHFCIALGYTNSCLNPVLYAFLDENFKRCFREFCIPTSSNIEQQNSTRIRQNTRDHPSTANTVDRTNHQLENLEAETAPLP
How it was run: as §1

Human neurokinin (NK1) = molecular target: T8, Human neurokinin (NK1) (Homo sapiens, UniProt P25103); test: Radioligand binding, human neurokinin NK1 membranes, filtration, [125I]-Substance P; settings: compound at 10 μM, [125I]-Substance P
T8 construct: purchased Perkin Elmer Biosignal
T8 sequence (P25103 whole entry): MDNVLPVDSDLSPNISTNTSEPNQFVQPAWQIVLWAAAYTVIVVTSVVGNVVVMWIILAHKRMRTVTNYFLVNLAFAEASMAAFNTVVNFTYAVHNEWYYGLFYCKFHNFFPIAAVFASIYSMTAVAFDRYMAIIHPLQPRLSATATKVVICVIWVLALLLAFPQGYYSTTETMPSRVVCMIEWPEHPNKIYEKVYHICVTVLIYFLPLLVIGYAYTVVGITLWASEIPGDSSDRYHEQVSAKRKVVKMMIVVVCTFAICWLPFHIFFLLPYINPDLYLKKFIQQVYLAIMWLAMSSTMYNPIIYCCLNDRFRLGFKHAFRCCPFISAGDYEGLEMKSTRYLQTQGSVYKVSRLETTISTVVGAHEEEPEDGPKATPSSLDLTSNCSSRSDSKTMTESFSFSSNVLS
How it was run: as §2

[2] = molecular target: T9, Human neuropeptide Y (NPY-Y1) (Homo sapiens, UniProt P25929); test: Radioligand binding, human neuropeptide Y NPY-Y1 membranes, FlashPlate, [125I]-PYY; settings: compound at 10 μM, [125I]-PYY
T9 construct: purchased Perkin Elmer Biosignal
T9 sequence (P25929 1-384): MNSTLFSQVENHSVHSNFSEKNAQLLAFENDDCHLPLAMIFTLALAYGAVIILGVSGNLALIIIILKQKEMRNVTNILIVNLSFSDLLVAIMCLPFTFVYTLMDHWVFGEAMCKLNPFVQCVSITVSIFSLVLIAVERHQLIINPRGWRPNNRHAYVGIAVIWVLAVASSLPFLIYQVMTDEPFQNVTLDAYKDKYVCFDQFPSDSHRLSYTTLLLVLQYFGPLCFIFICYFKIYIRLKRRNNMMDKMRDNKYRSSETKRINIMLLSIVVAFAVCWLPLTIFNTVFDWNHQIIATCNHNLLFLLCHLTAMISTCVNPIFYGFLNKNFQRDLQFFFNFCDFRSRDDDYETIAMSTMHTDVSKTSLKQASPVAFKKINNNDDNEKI
How it was run: as §1

Human opioid (ORL1) = molecular target: T10, Human opioid (ORL1) (Homo sapiens, UniProt P41146); test: Radioligand binding, human opioid ORL1 membranes, FlashPlate, [125I]-Nociceptin; settings: compound at 10 μM, [125I]-Nociceptin
T10 construct: purchased Perkin Elmer Biosignal
T10 sequence (P41146 whole entry): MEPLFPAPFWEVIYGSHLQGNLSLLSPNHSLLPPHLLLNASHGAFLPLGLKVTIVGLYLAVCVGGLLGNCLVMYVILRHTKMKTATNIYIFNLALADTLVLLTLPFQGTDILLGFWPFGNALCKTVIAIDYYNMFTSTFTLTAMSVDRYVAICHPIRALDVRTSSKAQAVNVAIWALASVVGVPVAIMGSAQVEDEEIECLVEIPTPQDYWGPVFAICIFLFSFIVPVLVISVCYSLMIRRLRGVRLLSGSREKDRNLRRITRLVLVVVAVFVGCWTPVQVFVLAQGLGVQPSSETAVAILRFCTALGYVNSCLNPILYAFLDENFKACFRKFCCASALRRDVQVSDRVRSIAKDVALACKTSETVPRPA
How it was run: as §1

Mouse urotensin (mUR2) = molecular target: T11, Mouse urotensin (mUR2) (Mus musculus, UniProt Q8VIH9); test: Radioligand binding, mouse urotensin mUR2 membranes, FlashPlate, [125I]-Urotensin II; settings: compound at 10 μM, [125I]-Urotensin II
T11 construct: purchased Perkin Elmer Biosignal
T11 sequence (Q8VIH9 1-385): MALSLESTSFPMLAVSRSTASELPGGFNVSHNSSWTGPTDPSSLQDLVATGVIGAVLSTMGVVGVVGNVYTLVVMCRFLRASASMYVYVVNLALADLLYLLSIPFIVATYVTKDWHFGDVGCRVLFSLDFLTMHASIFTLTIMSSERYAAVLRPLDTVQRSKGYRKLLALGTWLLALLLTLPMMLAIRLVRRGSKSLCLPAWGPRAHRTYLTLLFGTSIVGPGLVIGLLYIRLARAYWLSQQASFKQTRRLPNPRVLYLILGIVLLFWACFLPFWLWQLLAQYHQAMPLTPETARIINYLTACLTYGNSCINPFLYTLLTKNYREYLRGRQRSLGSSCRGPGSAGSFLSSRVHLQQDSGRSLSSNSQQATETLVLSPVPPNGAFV
How it was run: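 Cloned mouse urotensin (mUR2) receptor membranes from Perkin Elmer Biosignal were immobilized in FlashPlate microplates using a proprietary coating. Each well got 19.5 μl buffer, then 0.5 μl of DMSO, reference ligand, or compound. Adding 5 μl of [125I]-Urotensin II, diluted to 5× final concentration in binding buffer, started binding. Plates were sealed with TopSeal-A and incubated 1 hour at room temperature in the dark. Wells were counted for 30 seconds each on a TopCount after a 60-second delay, and percentage inhibition was calculated.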

T1 sequence (P41143 whole entry): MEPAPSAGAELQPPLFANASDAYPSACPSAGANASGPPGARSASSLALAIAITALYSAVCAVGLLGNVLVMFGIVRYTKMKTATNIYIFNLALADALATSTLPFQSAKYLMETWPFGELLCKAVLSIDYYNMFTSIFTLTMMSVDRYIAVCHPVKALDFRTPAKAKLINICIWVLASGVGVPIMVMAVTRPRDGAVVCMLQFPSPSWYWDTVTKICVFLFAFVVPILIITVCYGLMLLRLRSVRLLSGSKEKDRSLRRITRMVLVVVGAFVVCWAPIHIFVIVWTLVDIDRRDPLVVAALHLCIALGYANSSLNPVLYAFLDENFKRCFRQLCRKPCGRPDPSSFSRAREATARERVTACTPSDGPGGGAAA

SMILES: NCCC(=O)NC1C(OCc2ccc(Cl)cc2)OC(COCc2ccc3ccccc3c2)C(O)C1OCc1ccc2ccccc2c1 (single isomer, unassigned) [compound 477]
- A1: inhibition of radioligand binding, human δ-opioid (DOP) (Human δ-opioid (DOP)): − (“−” indicates less than 50% inhibition at 10 μM)
- A2: inhibition of radioligand binding, human κ-opioid (KOP) (Human κ-Opioid (KOP)): − (“−” indicates less than 50% inhibition at 10 μM)
- A3: inhibition of radioligand binding, human melanocortin (MC3) (Human Melanocortin (MC3)): − (“−” indicates less than 50% inhibition at 10 μM)
- A4: inhibition of radioligand binding, human melanocortin (MC4) (Human Melanocortin (MC4); 10 µM): − (“−” indicates less than 50% inhibition at 10 μM)
- A5: inhibition of radioligand binding, human melanocortin (MC5) (Human melanocortin (MC5)): + (“+” indicates greater than 50% inhibition at 10 μM)
- A6: inhibition of radioligand binding, human melanin-concentrating hormone (MCH1) ([1]; [125I]-S36057, 10 µM): − (“−” indicates less than 50% inhibition at 10 μM)
- A7: inhibition of radioligand binding, human μ-opioid (MOP) (Human μ-opioid (MOP)): − (“−” indicates less than 50% inhibition at 10 μM)
- A8: inhibition of radioligand binding, human neurokinin (NK1) (Human neurokinin (NK1)): + (“+” indicates greater than 50% inhibition at 10 μM)
- A9: inhibition of radioligand binding, human neuropeptide Y (NPY-Y1) [2]: − (“−” indicates less than 50% inhibition at 10 μM)
- A10: inhibition of radioligand binding, human opioid (ORL1) (Human opioid (ORL1); 10 µM): + (“+” indicates greater than 50% inhibition at 10 μM)
- A11: inhibition of radioligand binding, mouse urotensin (mUR2) (Mouse urotensin (mUR2)): − (“−” indicates less than 50% inhibition at 10 μM)

SMILES: CO[C@H]1[C@H](O)[C@@H](COCc2ccccc2)OC(OCc2ccc(Cl)cc2)[C@@H]1NC(=O)CCNC(=N)N (stereo partly shown) [compound 102]
- A1 radioligand binding, percentage inhibition (Human δ-opioid (DOP)): − (“−” indicates less than 50% inhibition at 10 μM)
- A2 radioligand binding, percentage inhibition (Human κ-Opioid (KOP)): − (“−” indicates less than 50% inhibition at 10 μM)
- A3 radioligand binding, percentage inhibition (Human Melanocortin (MC3)): − (“−” indicates less than 50% inhibition at 10 μM)
- A4 radioligand binding, percentage inhibition (Human Melanocortin (MC4)): − (“−” indicates less than 50% inhibition at 10 μM)
- A5 radioligand binding, percentage inhibition (Human melanocortin (MC5)): + (“+” indicates greater than 50% inhibition at 10 μM)
- A6 radioligand binding, percentage inhibition ([1]; [125I]-S36057): − (“−” indicates less than 50% inhibition at 10 μM)
- A7 radioligand binding, percentage inhibition (Human μ-opioid (MOP)): − (“−” indicates less than 50% inhibition at 10 μM)
- A8 radioligand binding, percentage inhibition (Human neurokinin (NK1)): − (“−” indicates less than 50% inhibition at 10 μM)
- A9 radioligand binding, percentage inhibition [2]: − (“−” indicates less than 50% inhibition at 10 μM)
- A10 radioligand binding, percentage inhibition (Human opioid (ORL1)): − (“−” indicates less than 50% inhibition at 10 μM)
- A11 radioligand binding, percentage inhibition (Mouse urotensin (mUR2)): − (“−” indicates less than 50% inhibition at 10 μM)

SMILES: CSC1OC(COCc2ccc(Cl)cc2)C(O)C(OCc2ccc(Cl)cc2)C1NC(=O)CCN (stereo not shown) [compound 271]
- A1: inhibition of radioligand binding (Human δ-opioid (DOP); FlashPlate): − (“−” indicates less than 50% inhibition at 10 μM)
- A2: inhibition of radioligand binding (Human κ-Opioid (KOP); filtration): − (“−” indicates less than 50% inhibition at 10 μM)
- A3: inhibition of radioligand binding (Human Melanocortin (MC3); FlashPlate): − (“−” indicates less than 50% inhibition at 10 μM)
- A4: inhibition of radioligand binding (Human Melanocortin (MC4); FlashPlate): − (“−” indicates less than 50% inhibition at 10 μM)
- A5: inhibition of radioligand binding (Human melanocortin (MC5); FlashPlate): − (“−” indicates less than 50% inhibition at 10 μM)
- A6: inhibition of radioligand binding ([1]; [125I]-S36057, FlashPlate): − (“−” indicates less than 50% inhibition at 10 μM)
- A7: inhibition of radioligand binding (Human μ-opioid (MOP); FlashPlate): − (“−” indicates less than 50% inhibition at 10 μM)
- A8: inhibition of radioligand binding (Human neurokinin (NK1); filtration): + (“+” indicates greater than 50% inhibition at 10 μM)
- A9: inhibition of radioligand binding ([2]; FlashPlate): − (“−” indicates less than 50% inhibition at 10 μM)
- A10: inhibition of radioligand binding (Human opioid (ORL1); FlashPlate): − (“−” indicates less than 50% inhibition at 10 μM)
- A11: inhibition of radioligand binding (Mouse urotensin (mUR2); FlashPlate): − (“−” indicates less than 50% inhibition at 10 μM)

SMILES: NCCC(=O)NC1C(OCc2ccc(Cl)cc2)OC(COCc2ccccc2)C(O)C1OCc1ccc(Cl)cc1 (single isomer, unassigned) [compound 474]
- A1: inhibition of radioligand binding (Human δ-opioid (DOP); human DOP membranes): − (“−” indicates less than 50% inhibition at 10 μM)
- A2: inhibition of radioligand binding (Human κ-Opioid (KOP); human KOP membranes): − (“−” indicates less than 50% inhibition at 10 μM)
- A3: inhibition of radioligand binding (Human Melanocortin (MC3); human MC3 membranes): − (“−” indicates less than 50% inhibition at 10 μM)
- A4: inhibition of radioligand binding (Human Melanocortin (MC4); human MC4 membranes): − (“−” indicates less than 50% inhibition at 10 μM)
- A5: inhibition of radioligand binding (Human melanocortin (MC5); human MC5 membranes, 10 µM): − (“−” indicates less than 50% inhibition at 10 μM)
- A6: inhibition of radioligand binding ([1]; [125I]-S36057, human MCH1 membranes, 10 µM): − (“−” indicates less than 50% inhibition at 10 μM)
- A7: inhibition of radioligand binding (Human μ-opioid (MOP); human MOP membranes, 10 µM): − (“−” indicates less than 50% inhibition at 10 μM)
- A8: inhibition of radioligand binding (Human neurokinin (NK1); human NK1 membranes): + (“+” indicates greater than 50% inhibition at 10 μM)
- A9: inhibition of radioligand binding ([2]; human NPY-Y1 membranes): − (“−” indicates less than 50% inhibition at 10 μM)
- A10: inhibition of radioligand binding (Human opioid (ORL1); human ORL1 membranes, 10 µM): + (“+” indicates greater than 50% inhibition at 10 μM)
- A11: inhibition of radioligand binding (Mouse urotensin (mUR2); mouse mUR2 membranes): − (“−” indicates less than 50% inhibition at 10 μM)

SMILES: N=C(N)NCC(=O)NC1C(OCc2ccc(Cl)cc2)OC(COCc2ccc3ccccc3c2)C(O)C1OCc1ccc(Cl)cc1 (single isomer, unassigned) [compound 507]
- A1: inhibition of radioligand binding, human δ-opioid (DOP) (Human δ-opioid (DOP)): − (“−” indicates less than 50% inhibition at 10 μM)
- A2: inhibition of radioligand binding, human κ-opioid (KOP) (Human κ-Opioid (KOP); 10 µM): − (“−” indicates less than 50% inhibition at 10 μM)
- A3: inhibition of radioligand binding, human melanocortin (MC3) (Human Melanocortin (MC3)): − (“−” indicates less than 50% inhibition at 10 μM)
- A4: inhibition of radioligand binding, human melanocortin (MC4) (Human Melanocortin (MC4)): + (“+” indicates greater than 50% inhibition at 10 μM)
- A5: inhibition of radioligand binding, human melanocortin (MC5) (Human melanocortin (MC5)): + (“+” indicates greater than 50% inhibition at 10 μM)
- A6: inhibition of radioligand binding, human melanin-concentrating hormone (MCH1) ([1]; [125I]-S36057): + (“+” indicates greater than 50% inhibition at 10 μM)
- A7: inhibition of radioligand binding, human μ-opioid (MOP) (Human μ-opioid (MOP)): − (“−” indicates less than 50% inhibition at 10 μM)
- A8: inhibition of radioligand binding, human neurokinin (NK1) (Human neurokinin (NK1)): + (“+” indicates greater than 50% inhibition at 10 μM)
- A9: inhibition of radioligand binding, human neuropeptide Y (NPY-Y1) [2]: − (“−” indicates less than 50% inhibition at 10 μM)
- A10: inhibition of radioligand binding, human opioid (ORL1) (Human opioid (ORL1)): + (“+” indicates greater than 50% inhibition at 10 μM)
- A11: inhibition of radioligand binding, mouse urotensin (mUR2) (Mouse urotensin (mUR2)): − (“−” indicates less than 50% inhibition at 10 μM)
